Data reported in patent publication US9249102B2 (priority 2012, dated 2016).
Like-named read-outs stand apart in the source and are kept apart here.

Experiments:
[1] = Method G: permeability in the Caco-2/TC7 in vitro model; details: human, Caco-2, pH 6.5
Haemonchus contortus = experiment: Method A: Haemonchus contortus L1 larvae, microtitre plate screen; details: 96 h, read-out: motility inhibition
[2] = system: microfilaria of Dirofilaria immitis; experiment: Method F: microfilaria of Dirofilaria immitis, survival at 24 hours
Cooperia oncophora = experiment: Method C: Cooperia oncophora L1 larvae in vitro; details: 96 h, read-out: inhibition of motility
[3] = survival of microfilaria at 24 hours

Row | Structure (SMILES) | Papp A→B at 20 μM [1] [×10⁻⁶ cm/s] | inhibition at 5 µg/mL (Haemonchus contortus) [%] | EC50 [2] [µg/mL] | EC50 [2, 3] [µg/mL] | inhibition at 5 µg/mL (Cooperia oncophora) [%]
1 | N#Cc1ccc(N[C@H]2CC[C@H](OCC(=O)N3CCN(Cc4nc5cc(Cl)ccc5s4)CC3)CC2)cc1C(F)(F)F [Compound 292, 4-[[4-[2-[4-[(5-chloro-1,3-benzothiazol-2-yl)methyl]piperazin-1-yl]-2-oxo-ethoxy]cyclohexyl]amino]-2-(trifluoromethyl)benzonitrile] | 8.3 | ≥ 90 | < 1 | – | –
2 | CN(c1ccc([N+](=O)[O-])c(C(F)(F)F)c1)[C@H]1CC[C@H](OCC(=O)N2CCN(Cc3cc4cc(C(F)(F)F)ccc4o3)CC2)CC1 [Compound 256, 2-[[4-[methyl[4-nitro-3-(trifluoromethyl)phenyl]amino]cyclohexyl]oxy]-1-(4-[[5-(trifluorom-ethyl)-1-benzofuran-2-yl]methyl]piperazin-1-yl)ethan-1-one] | 5.4 | ≥ 90 | – | < 1 | –
3 | N#Cc1ccc(N[C@H]2CC[C@H](OCC(=O)N3CCN(Cc4cc5cc(Cl)ccc5o4)CC3)CC2)cc1C(F)(F)F [Compound 274, 2-[(4-[[4-cyano-3-(trifluoromethyl)phenyl]amino]cyclohexyl)-oxy]1-[4-(5-chlorobenzofuran-2-ylmethyl)piperazin-1-yl]ethan-1-one] | 9.2 | ≥ 90 | < 1 | – | –
4 | N#Cc1ccc(N[C@H]2CC[C@H](OCC(=O)N3CCN(Cc4nc5cc(F)ccc5s4)CC3)CC2)cc1C(F)(F)F [Compound 294, 4-[[4-[2-[4-[(5-fluoro-1,3-benzothiazol-2-yl)methyl]piperazin-1-yl]-2-oxo-ethoxy]cyclohexyl]amino]-2-(trifluoromethyl)benzonitrile] | 8.2 | ≥ 90 | < 5 | – | –
5 | N#Cc1ccc(N[C@H]2CC[C@H](OCC(=O)N3CCN(CC4Cc5cc(Cl)ccc5O4)CC3)CC2)cc1C(F)(F)F (stereo partly drawn) [Compound 82] | 7.1 | ≥ 90 | – | – | –
6 | COc1ccc2oc(CN3CCN(C(=O)CO[C@H]4CC[C@H](Nc5ccc([N+](=O)[O-])c(C(F)(F)F)c5)CC4)CC3)cc2c1 [Compound 323, 2-[(4-[[4-nitro-3-(trifluoromethyl)phenyl]amino]cyclohexyl)-oxy]1-[4-(5-methoxybenzofuran-2-ylmethyl)piperazin-1-yl]ethan-1-one] | 11.9 | ≥ 90 | – | – | –
7 | O=C(CO[C@H]1CC[C@H](Nc2ccc([N+](=O)[O-])c(C(F)(F)F)c2)CC1)N1CCN(Cc2ccc3c(C(F)(F)F)cccc3n2)CC1 [Compound 329, 2-[4-(4-nitro-3-trifluoromethyl-phenylamino)-cyclohexyloxy]-1-[4-(5-trifluoromethyl-quinolin-2-ylmethyl)-piperazin-1-yl]-ethanone] | 5.6 | ≥ 90 | – | – | –
8 | O=C(NCCO[C@H]1CC[C@H](Nc2ccc([N+](=O)[O-])c(C(F)(F)F)c2)CC1)C(=O)NCc1cc2cc(F)ccc2o1 [Compound 221, N^1-((5-fluorobenzofuran-2-yl)methyl)-N^2-(2-(4-(4-nitro-3-(trifluoromethyl)phenylamino)cyclohexyloxy)ethyl)oxalamide] | 7.5 | – | – | < 1 | –
9 | N#Cc1ccc(N[C@H]2CC[C@H](OCC(=O)N3CCN(CC4Cc5cc(C(F)(F)F)ccc5O4)CC3)CC2)cc1C(F)(F)F (stereo partly drawn) [Compound 84, 4-([4-[2-oxo-2-(4-[[5-(trifluoromethyl)-2,3-dihydro-1-benzofuran-2-yl]methyl]piperazin-1-yl)ethoxy]cyclohexyl]amino)-2-(trifluoromethyl)benzonitrile] | 5.3 | ≥ 90 | < 5 | – | –
10 | N#Cc1ccc(N[C@H]2CC[C@H](OCC(=O)N3CCN(Cc4ccc5cc(C(F)(F)F)ccc5n4)CC3)CC2)cc1C(F)(F)F [Compound 334, 4-(4-{2-oxo-2-[4-(6-trifluoromethyl-quinolin-2-ylmethyl)-piperazin-1-yl]-ethoxy}-cyclohexylamino)-2-trifluoromethyl-benzonitrile] | 11.9 | ≥ 90 | – | – | –
11 | O=C(CO[C@H]1CC[C@H](Nc2ccc([N+](=O)[O-])c(C(F)(F)F)c2)CC1)N1CCN(Cc2ccc3cc(C(F)(F)F)ccc3n2)CC1 [Compound 332, 2-[4-(4-nitro-3-trifluoromethyl-phenylamino)-cyclohexyloxy]-1-[4-(6-trifluoromethyl-quinolin-2-ylmethyl)-piperazin-1-yl]-ethanone] | 6.5 | ≥ 90 | – | – | –
12 | O=C(CO[C@H]1CC[C@H](Nc2ccc([N+](=O)[O-])c(C(F)(F)F)c2)CC1)N1CCN(Cc2nc3cc(Cl)ccc3o2)CC1 [Compound 287, 2-[(4-[[4-nitro-3-(trifluoromethyl)phenyl]amino]cyclohexyl)-oxy]1-[4-(5-chlorobenzoxazol-2-ylmethyl)piperazin-1-yl]ethan-1-one] | 11 | ≥ 90 | – | < 5 | –
13 | CC(c1cc2cc(Cl)ccc2o1)N1CCN(C(=O)CO[C@H]2CC[C@H](Nc3ccc([N+](=O)[O-])c(C(F)(F)F)c3)CC2)CC1 (stereo partly drawn) [Compound 300] | – | ≥ 90 | – | < 0.1 | ≥ 90
14 | CN(c1ccc([N+](=O)[O-])c(C(F)(F)F)c1)[C@H]1CC[C@H](OCC(=O)N2CCN(c3ccc4cc(Cl)ccc4n3)CC2)CC1 [Compound 246, 1-[4-(6-chloroquinolin-2-yl)piperazin-1-yl]-2-[[4-[methyl[4-nitro-3-(trifluoromethyl)phenyl]amino]cyclohexyl]oxy]ethan-1-one] | – | ≥ 90 | < 1 | – | ≥ 90
15 | N#Cc1ccc(N[C@H]2CC[C@H](OCC(=O)N3CCN(Cc4ccc5ccc(C(F)(F)F)cc5n4)CC3)CC2)cc1C(F)(F)F [Compound 333, 4-(4-{2-oxo-2-[4-(7-trifluoromethyl-quinolin-2-ylmethyl)-piperazin-1-yl]-ethoxy}-cyclohexylamino)-2-trifluoromethyl-benzonitrile] | 8.1 | ≥ 90 | – | – | –
16 | N#Cc1ccc(N[C@H]2CC[C@H](OCC(=O)N3CCN(c4cnc5ccccc5c4)CC3)CC2)cc1C(F)(F)F [Compound 335, 4-[[4-[2-oxo-2-[4-(3-quinolyl)piperazin-1-yl]ethoxy]cyclohexyl]amino]-2-(trifluoromethyl)benzonitrile] | 15 | ≥ 90 | – | – | –
17 | O=C(CO[C@H]1CC[C@H](Nc2ccc([N+](=O)[O-])c(C(F)(F)F)c2)CC1)N1CCN(Cc2cc3ccc(Cl)cc3o2)CC1 [Compound 322, 2-[(4-[[4-nitro-3-(trifluoromethyl)phenyl]amino]cyclohexyl)-oxy]1-[4-(6-chlorobenzofuran-2-ylmethyl)piperazin-1-yl]ethan-1-one] | 7.9 | ≥ 90 | – | – | –
18 | O=C(CO[C@H]1CC[C@H](Nc2ccc([N+](=O)[O-])c(C(F)(F)F)c2)CC1)N1CCN(Cc2nc3cc(F)ccc3o2)CC1 [Compound 285, 2-[(4-[[4-nitro-3-(trifluoromethyl)phenyl]amino]cyclohexyl)-oxy]1-[4-(5-fluorobenzoxazol-2-ylmethyl)piperazin-1-yl]ethan-1-one] | 12 | ≥ 90 | – | – | –
19 | O=C(CO[C@H]1CC[C@H](Nc2ccc([N+](=O)[O-])c(C(F)(F)F)c2)CC1)N1CCN(CC2Cc3cc(-c4ccc(F)cc4)ccc3O2)CC1 (stereo partly drawn) [Compound 310, 1-{4-[5-(4-fluoro-phenyl)-2,3-dihydro-benzofuran-2-ylmethyl]-piperazin-1-yl}-2-[4-(4-nitro-3-trifluoromethyl-phenylamino)-cyclohexyloxy]-ethanone] | – | ≥ 90 | – | < 0.1 | ≥ 90
20 | CC(c1ccc2cc(F)ccc2c1)N1CCN(C(=O)CO[C@H]2CC[C@H](Nc3ccc([N+](=O)[O-])c(C(F)(F)F)c3)CC2)CC1 (stereo partly drawn) [Compound 298, 2-[(4-[[4-nitro-3-(trifluoromethyl)phenyl]amino]cyclohexyl)-oxy]1-[4-[1-(6-fluoronaphthalen-2-yl)ethyl]piperazin-1-yl]ethan-1-one] | – | ≥ 90 | – | < 1 | ≥ 90
21 | C[C@@H]1CN(CC2Cc3cc(F)ccc3O2)[C@@H](C)CN1C(=O)CO[C@H]1CC[C@H](Nc2ccc([N+](=O)[O-])c(C(F)(F)F)c2)CC1 (stereo partly drawn) [Compound 307, 1-[(2R,5S)-4-(5-fluoro-2,3-dihydro-benzofuran-2-ylmethyl)-2,5-dimethyl-piperazin-1-yl]-2-[4-(4-nitro-3-trifluoromethyl-phenylamino)-cyclohexyloxy]-ethanone] | – | ≥ 90 | – | < 0.1 | ≥ 90
22 | O=C(CO[C@H]1CC[C@H](Nc2ccc([N+](=O)[O-])c(C(F)(F)F)c2)CC1)N1CCN(C(=O)C2Cc3cc(F)ccc3O2)CC1 (stereo partly drawn) [Compound 80, 1-[4-(5-fluoro-2,3-dihydro-benzofuran-2-carbonyl)-piperazin-1-yl]-2-[4-(4-nitro-3-trifluoromethyl-phenylamino)-cyclohexyloxy]-ethanone] | 12.1 | ≥ 90 | – | – | –
23 | O=C(CO[C@H]1CC[C@H](Nc2ccc([N+](=O)[O-])c(C(F)(F)F)c2)CC1)N1CCN(c2cnc3ccccc3c2)CC1 [Compound 336, 2-[4-[4-nitro-3-(trifluoromethyl)anilino]cyclohexoxy]-1-[4-(3-quinolyl)piperazin-1-yl]ethanone] | 7.9 | ≥ 90 | – | – | –
24 | O=C(COC1CCC(Nc2ccc([N+](=O)[O-])c(C(F)(F)F)c2)CC1)N1CCN(c2ccc3cc(Br)ccc3n2)CC1 (stereo not drawn) [Compound 266, 2-[[4-[(4-nitro-3-trifluoromethyl-phenyl)amino]cyclohexyl]oxy]-1-[4-(6-bromoquinolin-2-yl)piperazin-1-yl]ethan-1-one] | – | ≥ 90 | – | < 0.1 | ≥ 90
